Tested on: JAK1-dependent STAT6 phosphorylation downstream of IL-13 stimulation in TF-1 human erythroleukemia cells
Test: cells
Conditions: TF-1, read-out: IL-13-pSTAT6 IC50

Structure (SMILES) | IC50 [µM]
CN1C(C)(C)CC(NC(=O)c2ccc(Nc3nc4c(C5=CCN(C(=O)CCC(F)(F)F)CC5)cccn4n3)cc2)CC1(C)C [Example 2-332, N-(1,2,2,6,6-pentamethyl-4-piperidyl)-4-[[8-[1-(4,4,4-trifluorobutanoyl)-3,6-dihydro-2H-pyridin-4-yl]-[1,2,4]triazolo[1,5-a]pyridin-2-yl]amino]benzamide] | 0.0092
CC(C)(CN1CCOCC1)NC(=O)c1ccc(Nc2nc3c(C4=CCN(C(=O)CCC(F)(F)F)CC4)cccn3n2)cc1 [Example 2-333, N-(1,1-dimethyl-2-morpholino-ethyl)-4-[[8-[1-(4,4,4-trifluorobutanoyl)-3,6-dihydro-2H-pyridin-4-yl]-[1,2,4]triazolo[1,5-a]pyridin-2-yl]amino]benzamide] | 0.0055
CN1CCC(NC(=O)c2ccc(Nc3nc4c(C5=CCN(C(=O)CCC(F)(F)F)CC5)cccn4n3)cc2)CC1 [Example 2-335, N-(1-methyl-4-piperidyl)-4-[[8-[1-(4,4,4-trifluorobutanoyl)-3,6-dihydro-2H-pyridin-4-yl]-[1,2,4]triazolo[1,5-a]pyridin-2-yl]amino]benzamide] | 0.0143
CN(C)CCNC(=O)c1ccc(Nc2nc3c(C4=CCN(C(=O)CCC(F)(F)F)CC4)cccn3n2)cc1 [Example 2-336, N-[2-(dimethylamino)ethyl]-4-[[8-[1-(4,4,4-trifluorobutanoyl)-3,6-dihydro-2H-pyridin-4-yl]-[1,2,4]triazolo[1,5-a]pyridin-2-yl]amino]benzamide] | 0.0086
CN1CCCC(CNC(=O)c2ccc(Nc3nc4c(C5=CCN(C(=O)CCC(F)(F)F)CC5)cccn4n3)cc2)C1 (stereo not shown) [Example 2-337, N-[(1-methyl-3-piperidyl)methyl]-4-[[8-[1-(4,4,4-trifluorobutanoyl)-3,6-dihydro-2H-pyridin-4-yl]-[1,2,4]triazolo[1,5-a]pyridin-2-yl]amino]benzamide] | 0.0289
O=C(CCC(F)(F)F)N1CC=C(c2cccn3nc(Nc4ccc(C(=O)N5CCCC(N6CCOCC6)C5)cc4)nc23)CC1 (stereo not shown) [Example 2-339, 4,4,4-trifluoro-1-[4-[2-[4-(3-morpholinopiperidine-1-carbonyl)anilino]-[1,2,4]triazolo[1,5-a]pyridin-8-yl]-3,6-dihydro-2H-pyridin-1-yl]butan-1-one] | 0.0098
O=C(CCC(F)(F)F)N1CC=C(c2cccn3nc(Nc4ccc(C(=O)N5CCN(CC6CCCO6)CC5)cc4)nc23)CC1 (stereo not shown) [Example 2-340, 4,4,4-trifluoro-1-[4-[2-[4-[4-(tetrahydrofuran-2-ylmethyl)piperazine-1-carbonyl]anilino]-[1,2,4]triazolo[1,5-a]pyridin-8-yl]-3,6-dihydro-2H-pyridin-1-yl]butan-1-one] | 0.0039
O=C(CCC(F)(F)F)N1CC=C(c2cccn3nc(Nc4ccc(C(=O)N5CCCC(c6ccccn6)C5)cc4)nc23)CC1 (stereo not shown) [Example 2-341, 4,4,4-trifluoro-1-[4-[2-[4-[3-(2-pyridyl)piperidine-1-carbonyl]anilino]-[1,2,4]triazolo[1,5-a]pyridin-8-yl]-3,6-dihydro-2H-pyridin-1-yl]butan-1-one] | 0.0114
CNC(=O)C1CN(C(=O)c2ccc(Nc3nc4c(C5=CCN(C(=O)CCC(F)(F)F)CC5)cccn4n3)cc2)CCN1Cc1ccccc1 (stereo not shown) [Example 2-342, 1-benzyl-N-methyl-4-[4-[[8-[1-(4,4,4-trifluorobutanoyl)-3,6-dihydro-2H-pyridin-4-yl]-[1,2,4]triazolo[1,5-a]pyridin-2-yl]amino]benzoyl] piperazine-2-carboxamide] | 0.0162
CC(=O)N1CC=C(c2cccn3nc(Nc4ccc(C(=O)N(C)C5CCN(C)CC5)cc4)nc23)CC1 [Example 2-344, 4-[[8-(1-acetyl-3,6-dihydro-2H-pyridin-4-yl)-[1,2,4]triazolo[1,5-a]pyridin-2-yl]amino]-N-methyl-N-(1-methyI-4-piperidyl)benzamide] | 1.8
CC(C)COC(=O)N1CC=C(c2cccn3nc(Nc4ccc(C(=O)N(C)C5CCN(C)CC5)cc4)nc23)CC1 [Example 2-345, isobutyl 4-[2-[4-[methyl-(1-methyl-4-piperidyl)carbamoyl]anilino]-[1,2,4]triazolo[1,5-a]pyridin-8-yl]-3,6-dihydro-2H-pyridine-1-carboxylate] | 0.0237
CN1CCC(N(C)C(=O)c2ccc(Nc3nc4c(C5=CCN(C(=O)OC6CCOC6)CC5)cccn4n3)cc2)CC1 (stereo not shown) [Example 2-346, tetrahydrofuran-3-yl 4-[2-[4-[methyl-(1-methyl-4-piperidyl)carbamoyl]anilino]-[1,2,4]triazolo[1,5-a]pyridin-8-yl]-3,6-dihydro-2H-pyridine-1-carboxylate] | 0.0891
CN1CCC(N(C)C(=O)c2ccc(Nc3nc4c(C5=CCN(C(=O)C6CCCCC6)CC5)cccn4n3)cc2)CC1 [Example 2-348, 4-[[8-[1-(cyclohexanecarbonyl)-3,6-dihydro-2H-pyridin-4-yl]-[1,2,4]triazolo[1,5-a]pyridin-2-yl]amino]-N-methyl-N-(1-methyl-4-piperidyl)benzamide] | 0.0347
CN1CCC(N(C)C(=O)c2ccc(Nc3nc4c(C5=CCN(C(=O)[C@H]6CC[C@H](C#N)CC6)CC5)cccn4n3)cc2)CC1 [Example 2-350, 4-[[8-[1-(4-cyanocyclohexanecarbonyl)-3,6-dihydro-2H-pyridin-4-yl]-[1,2,4]triazolo[1,5-a]pyridin-2-yl]amino]-N-methyl-N-(1-methyl-4-piperidyl)benzamide] | 0.719
CN1CCC(N(C)C(=O)c2ccc(Nc3nc4c(C5=CCN(C(=O)OCc6ccccc6)CC5)cccn4n3)cc2)CC1 [Example 2-351, benzyl 4-[2-[4-[methyl-(1-methyl-4-piperidyl)carbamoyl]anilino]-[1,2,4]triazolo[1,5-a]pyridin-8-yl]-3,6-dihydro-2H-pyridine-1-carboxylate] | 0.0526
CN1CCC(N(C)C(=O)c2ccc(Nc3nc4c(C5=CCN(C(=O)OCC6CC6)CC5)cccn4n3)cc2)CC1 [Example 2-353, cyclopropylmethyl 4-[2-[4-[methyl-(1-methyl-4-piperidyl)carbamoyl]anilino]-[1,2,4]triazolo[1,5-a]pyridin-8-yl]-3,6-dihydro-2H-pyridine-1-carboxylate] | 0.0327
CCOC(=O)N1CC=C(c2cccn3nc(Nc4ccc(C(=O)N5CCC(c6ccccn6)CC5)cc4)nc23)CC1 [Example 2-358, ethyl 4-[2-[4-[4-(2-pyridyl)piperidine-1-carbonyl]anilino]-[1,2,4]triazolo[1,5-a]pyridin-8-yl]-3,6-dihydro-2H-pyridine-1-carboxylate] | 0.0413
CCOC(=O)N1CC=C(c2cccn3nc(Nc4ccc(C(=O)NC5CCNCC5)cc4)nc23)CC1 [Example 2-360, ethyl 4-[2-[4-(4-piperidylcarbamoyl)anilino]-[1,2,4]triazolo[1,5-a]pyridin-8-yl]-3,6-dihydro-2H-pyridine-1-carboxylate] | 0.411
CCOC(=O)N1CC=C(c2cccn3nc(Nc4ccc(C(=O)N(C)Cc5ccncc5)cc4)nc23)CC1 [Example 2-361, ethyl 4-[2-[4-[methyl(4-pyridylmethyl)carbamoyl]anilino]-[1,2,4]triazolo[1,5-a]pyridin-8-yl]-3,6-dihydro-2H-pyridine-1-carboxylate] | 0.0089

Reference: patent US9873709B2 (priority 2013, dated 2018)
